In publication PMC5609037, “Selective inhibition of PfA-M1, over PfA-M17, by an amino-benzosuberone derivative blocks malaria parasites development in vitro and in vivo” (Malaria Journal, 2017) one finds Ki data, which are given here for one compound.

The Ki is the equilibrium dissociation constant of an inhibitor or competing ligand from its target. A high value points to lower affinity.

SMILES strings stand for the structures.

For experiment [1], the target named is T1, PfA-M17 (P. falciparum leucyl aminopeptidase) (Plasmodium falciparum, UniProt Q8IL11).
T1 construct: gene LAP; residues 84–605, N-terminal hexahistidine tag, recombinant from E. coli
T1 sequence (Q8IL11 84-605): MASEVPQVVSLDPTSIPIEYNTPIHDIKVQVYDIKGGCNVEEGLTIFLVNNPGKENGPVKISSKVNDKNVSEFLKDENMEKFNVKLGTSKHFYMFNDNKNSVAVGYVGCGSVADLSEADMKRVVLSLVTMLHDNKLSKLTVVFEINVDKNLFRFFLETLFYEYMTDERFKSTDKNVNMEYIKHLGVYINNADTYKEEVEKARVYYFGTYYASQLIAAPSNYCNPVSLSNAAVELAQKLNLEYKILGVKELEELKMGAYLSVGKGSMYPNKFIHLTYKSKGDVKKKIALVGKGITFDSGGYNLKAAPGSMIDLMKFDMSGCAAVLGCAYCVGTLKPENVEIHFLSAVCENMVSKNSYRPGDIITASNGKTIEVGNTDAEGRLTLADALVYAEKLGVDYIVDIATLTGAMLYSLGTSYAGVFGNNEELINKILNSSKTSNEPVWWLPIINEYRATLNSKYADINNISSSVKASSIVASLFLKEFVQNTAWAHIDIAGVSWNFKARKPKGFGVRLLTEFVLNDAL
In words: Leu-pNA hydrolysis at […] nm, Ki by Dixon plots. The format is biochemical.

For experiment [2], the target named is T2, PfA-M1 (P. falciparum alanyl aminopeptidase, M1 family aminopeptidase) (Plasmodium falciparum, UniProt O96935).
T2 construct: gene M1AAP; residues 192–1085, N-terminal hexahistidine tag, recombinant from E. coli
T2 sequence (O96935 192-1085): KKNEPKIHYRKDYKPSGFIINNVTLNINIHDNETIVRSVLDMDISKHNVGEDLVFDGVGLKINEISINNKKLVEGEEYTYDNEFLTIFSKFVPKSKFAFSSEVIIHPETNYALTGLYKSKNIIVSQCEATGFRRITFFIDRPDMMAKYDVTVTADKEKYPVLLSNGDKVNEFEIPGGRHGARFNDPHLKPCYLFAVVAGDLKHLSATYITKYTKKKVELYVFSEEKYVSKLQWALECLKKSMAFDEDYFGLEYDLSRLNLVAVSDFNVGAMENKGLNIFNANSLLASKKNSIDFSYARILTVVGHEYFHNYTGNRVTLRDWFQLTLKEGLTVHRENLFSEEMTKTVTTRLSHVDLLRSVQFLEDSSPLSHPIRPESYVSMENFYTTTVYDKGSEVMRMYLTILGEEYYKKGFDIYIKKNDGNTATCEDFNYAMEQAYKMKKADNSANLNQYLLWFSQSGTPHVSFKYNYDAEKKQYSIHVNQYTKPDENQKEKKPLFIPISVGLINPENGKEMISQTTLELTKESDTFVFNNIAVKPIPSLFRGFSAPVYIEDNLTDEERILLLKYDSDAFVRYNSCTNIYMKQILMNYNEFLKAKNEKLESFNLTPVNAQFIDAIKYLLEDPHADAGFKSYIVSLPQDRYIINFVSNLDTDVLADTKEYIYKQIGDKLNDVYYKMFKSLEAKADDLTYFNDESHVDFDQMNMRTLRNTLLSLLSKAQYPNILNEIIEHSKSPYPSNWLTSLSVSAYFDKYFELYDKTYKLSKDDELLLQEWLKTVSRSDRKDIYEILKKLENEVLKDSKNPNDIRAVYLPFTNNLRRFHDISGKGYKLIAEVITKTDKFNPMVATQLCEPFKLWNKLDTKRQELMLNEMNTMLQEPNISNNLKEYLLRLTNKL
Kind of experiment: Ala-pNA hydrolysis at […] nm, Ki by Dixon plots. The format is biochemical.

For the compound `CC(C)C[C@H](NC(=O)[C@@H](O)[C@H](N)Cc1ccccc1)C(=O)O` [bestatin], the results for the Ki in experiment [1] and in experiment [2] were 400 nM and 100 nM, respectively.
